Experimental data taken from patent US20210254272A1, “TEXTILES HAVING ANTIMICROBIAL PROPERTIES” (Livinguard AG, priority 2015, published 2021).

Test system: E. coli (ATCC 25922)
Assay: AATCC Test Method 100-2012 antibacterial activity of the treated textile, after 25 washes and 12 abrasion cycles, contact time 60 minutes
Type: cell-based
Conditions: for Performance Test-Log reduction of antimicrobial performance: pad process, 2 min
Description: The antibacterial activity of the textile was tested in accordance with AATCC Test Method 100-2012. Prior to the test, the fabric was cut into coupons of 2×4 inches and washed separately 25 times, and exposed to 12 abrasion cycles, as per US EPA protocol 90072PA4 (described further below). The tests were made against E. coli (ATCC 25922). Contact time was 60 minutes, after inoculating with 10^8 CFU per coupon.

Silver
Performance Test-Log reduction of antimicrobial performance (single agent 5 gm/lit, curing 180° C.): 1.11 Log | Performance Test-Log reduction of antimicrobial performance (single agent 10 gm/lit, curing 120° C.): 0.37 Log | Performance Test-Log reduction of antimicrobial performance (single agent 10 gm/lit, curing 140° C.): 0.48 Log | Performance Test-Log reduction of antimicrobial performance (single agent 10 gm/lit, curing 150° C.): 0.58 Log | Performance Test-Log reduction of antimicrobial performance (single agent 10 gm/lit, curing 160° C.): 0.95 Log | Performance Test-Log reduction of antimicrobial performance (single agent 10 gm/lit, curing 180° C.): 2.11 Log | Log reduction of antimicrobial performance (pure cotton fabric, exhaust 80° C., 60 min, dosage 0.1% o.w.f): 0.55 Log | Log reduction of antimicrobial performance (pure cotton fabric, exhaust 80° C., 60 min, dosage 0.2% o.w.f): 1.35 Log | Log reduction of antimicrobial performance (pure cotton fabric, exhaust 80° C., 60 min, dosage 0.5% o.w.f): 1.67 Log | Log reduction of antimicrobial performance (pure cotton fabric, exhaust 80° C., 60 min, dosage 0.8% o.w.f): 1.84 Log | Log reduction of antimicrobial performance (pure cotton fabric, exhaust 80° C., 60 min, dosage 1.0% o.w.f): 2.87 Log | Log reduction of antimicrobial performance (pure cotton, exhaust 80° C., 1% o.w.f, 60 min, curing 180° C., curing dwell time 0.5 min): 0.4 Log | Log reduction of antimicrobial performance (pure cotton, exhaust 80° C., 1% o.w.f, 60 min, curing 180° C., curing dwell time 1.0 min): 0.6 Log | Log reduction of antimicrobial performance (pure cotton, exhaust 80° C., 1% o.w.f, 60 min, curing 180° C., curing dwell time 1.5 min): 1.4 Log | Log reduction of antimicrobial performance (pure cotton, exhaust 80° C., 1% o.w.f, 60 min, curing 180° C., curing dwell time 2.0 min): 2.9 Log | Log reduction of antimicrobial performance (pure cotton, exhaust 80° C., 1% o.w.f, 60 min, curing 180° C., curing dwell time 2.5 min): 2.2 Log | Log reduction of antimicrobial performance (pure cotton, exhaust 80° C., 1% o.w.f, 60 min, curing 180° C., curing dwell time 3.0 min): 1.2 Log | Log reduction of antimicrobial performance (pure polyester fabric, exhaust 80° C., 60 min, curing 180° C., curing dwell time 0.5 min): 0.5 Log | Log reduction of antimicrobial performance (pure polyester fabric, exhaust 80° C., 60 min, curing 180° C., curing dwell time 1.0 min): 0.9 Log | Log reduction of antimicrobial performance (pure polyester fabric, exhaust 80° C., 60 min, curing 180° C., curing dwell time 1.5 min): 1.4 Log | Log reduction of antimicrobial performance (pure polyester fabric, exhaust 80° C., 60 min, curing 180° C., curing dwell time 2.0 min): 2.68 Log | Log reduction of antimicrobial performance (pure polyester fabric, exhaust 80° C., 60 min, curing 180° C., curing dwell time 2.5 min): 2.21 Log | Log reduction of antimicrobial performance (pure polyester fabric, exhaust 80° C., 60 min, curing 180° C., curing dwell time 3.0 min): 1.2 Log | Log reduction of antimicrobial performance (pure polyester fabric, exhaust 80° C., 60 min, dosage 0.1% o.w.f): 0.55 Log | Log reduction of antimicrobial performance (pure polyester fabric, exhaust 80° C., 60 min, dosage 0.2% o.w.f): 1.43 Log | Log reduction of antimicrobial performance (pure polyester fabric, exhaust 80° C., 60 min, dosage 0.5% o.w.f): 1.78 Log | Log reduction of antimicrobial performance (pure polyester fabric, exhaust 80° C., 60 min, dosage 0.8% o.w.f): 1.83 Log | Log reduction of antimicrobial performance (pure polyester fabric, exhaust 80° C., 60 min, dosage 1.0% o.w.f): 2.67 Log | Log reduction of antimicrobial performance (solution dosage 0.10% o.w.f, exhaust temperature 40° C., process time 60 min): 0 Log | Log reduction of antimicrobial performance (solution dosage 0.10% o.w.f, exhaust temperature 60° C., process time 60 min): 0 Log | Log reduction of antimicrobial performance (solution dosage 0.10% o.w.f, exhaust temperature 65° C., process time 60 min): 0 Log | Log reduction of antimicrobial performance (solution dosage 0.10% o.w.f, exhaust temperature 70° C., process time 60 min): 0 Log | Log reduction of antimicrobial performance (solution dosage 0.10% o.w.f, exhaust temperature 75° C., process time 60 min): 0.21 Log | Log reduction of antimicrobial performance (solution dosage 0.10% o.w.f, exhaust temperature 80° C., process time 60 min): 0.53 Log | Log reduction of antimicrobial performance (solution dosage 0.10% o.w.f, exhaust temperature 85° C., process time 60 min): 0.67 Log | Log reduction of antimicrobial performance (solution dosage 0.10% o.w.f, exhaust temperature 90° C., process time 60 min): 0.68 Log | Log reduction of antimicrobial performance (solution dosage 0.10% o.w.f, exhaust temperature 95° C., process time 60 min): 0.68 Log | Log reduction of antimicrobial performance (solution dosage 0.20% o.w.f, exhaust temperature 40° C., process time 60 min): 0 Log | Log reduction of antimicrobial performance (solution dosage 0.20% o.w.f, exhaust temperature 60° C., process time 60 min): 0.11 Log | Log reduction of antimicrobial performance (solution dosage 0.20% o.w.f, exhaust temperature 65° C., process time 60 min): 0.12 Log | Log reduction of antimicrobial performance (solution dosage 0.20% o.w.f, exhaust temperature 70° C., process time 60 min): 0.17 Log | Log reduction of antimicrobial performance (solution dosage 0.20% o.w.f, exhaust temperature 75° C., process time 60 min): 0.87 Log | Log reduction of antimicrobial performance (solution dosage 0.20% o.w.f, exhaust temperature 80° C., process time 60 min): 1.32 Log | Log reduction of antimicrobial performance (solution dosage 0.20% o.w.f, exhaust temperature 85° C., process time 60 min): 1.45 Log | Log reduction of antimicrobial performance (solution dosage 0.20% o.w.f, exhaust temperature 90° C., process time 60 min): 1.46 Log | Log reduction of antimicrobial performance (solution dosage 0.20% o.w.f, exhaust temperature 95° C., process time 60 min): 1.46 Log | Log reduction of antimicrobial performance (solution dosage 0.50% o.w.f, exhaust temperature 40° C., process time 60 min): 0 Log | Log reduction of antimicrobial performance (solution dosage 0.50% o.w.f, exhaust temperature 60° C., process time 60 min): 0.23 Log | Log reduction of antimicrobial performance (solution dosage 0.50% o.w.f, exhaust temperature 65° C., process time 60 min): 0.13 Log | Log reduction of antimicrobial performance (solution dosage 0.50% o.w.f, exhaust temperature 70° C., process time 60 min): 0.18 Log | Log reduction of antimicrobial performance (solution dosage 0.50% o.w.f, exhaust temperature 75° C., process time 60 min): 1.05 Log | Log reduction of antimicrobial performance (solution dosage 0.50% o.w.f, exhaust temperature 80° C., process time 60 min): 1.56 Log | Log reduction of antimicrobial performance (solution dosage 0.50% o.w.f, exhaust temperature 85° C., process time 60 min): 1.76 Log | Log reduction of antimicrobial performance (solution dosage 0.50% o.w.f, exhaust temperature 90° C., process time 60 min): 1.78 Log | Log reduction of antimicrobial performance (solution dosage 0.50% o.w.f, exhaust temperature 95° C., process time 60 min): 1.78 Log | Log reduction of antimicrobial performance (solution dosage 0.80% o.w.f, exhaust temperature 40° C., process time 60 min): 0 Log | Log reduction of antimicrobial performance (solution dosage 0.80% o.w.f, exhaust temperature 60° C., process time 60 min): 0.36 Log | Log reduction of antimicrobial performance (solution dosage 0.80% o.w.f, exhaust temperature 65° C., process time 60 min): 0.37 Log | Log reduction of antimicrobial performance (solution dosage 0.80% o.w.f, exhaust temperature 70° C., process time 60 min): 0.42 Log | Log reduction of antimicrobial performance (solution dosage 0.80% o.w.f, exhaust temperature 75° C., process time 60 min): 1.13 Log | Log reduction of antimicrobial performance (solution dosage 0.80% o.w.f, exhaust temperature 80° C., process time 60 min): 1.84 Log | Log reduction of antimicrobial performance (solution dosage 0.80% o.w.f, exhaust temperature 85° C., process time 60 min): 1.94 Log | Log reduction of antimicrobial performance (solution dosage 0.80% o.w.f, exhaust temperature 90° C., process time 60 min): 1.95 Log | Log reduction of antimicrobial performance (solution dosage 0.80% o.w.f, exhaust temperature 95° C., process time 60 min): 1.95 Log | Log reduction of antimicrobial performance (solution dosage 1.00% o.w.f, exhaust temperature 40° C., process time 60 min): 0 Log | Log reduction of antimicrobial performance (solution dosage 1.00% o.w.f, exhaust temperature 60° C., process time 60 min): 0.41 Log | Log reduction of antimicrobial performance (solution dosage 1.00% o.w.f, exhaust temperature 65° C., process time 60 min): 0.42 Log | Log reduction of antimicrobial performance (solution dosage 1.00% o.w.f, exhaust temperature 70° C., process time 60 min): 0.52 Log | Log reduction of antimicrobial performance (solution dosage 1.00% o.w.f, exhaust temperature 75° C., process time 60 min): 1.23 Log | Log reduction of antimicrobial performance (solution dosage 1.00% o.w.f, exhaust temperature 80° C., process time 60 min): 2.78 Log | Log reduction of antimicrobial performance (solution dosage 1.00% o.w.f, exhaust temperature 85° C., process time 60 min): 2.85 Log | Log reduction of antimicrobial performance (solution dosage 1.00% o.w.f, exhaust temperature 90° C., process time 60 min): 2.86 Log | Log reduction of antimicrobial performance (solution dosage 1.00% o.w.f, exhaust temperature 95° C., process time 60 min): 2.86 Log
